Measurements taken from PubChem BioAssay (NCI).
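How tested: cells in 96-well plates exposed to compound for 48 hours at five concentrations. At the GI50, growth is halved. TGI marks complete inhibition of growth.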

The molecules below were run on HCT-15 colon (assay: DTP human tumour cell line panel, 48 h).

Row | SMILES | GI50 | TGI
1 | COc1cccc2c1O/C(=C\c1ccc([N+](=O)[O-])s1)C2=O | 0.474 µM | 2.34 µM
2 | FC(F)(F)c1ccc2nc(NCc3ccccc3)c(-c3ccccc3)nc2c1 |  | > 100 µM
3 | COc1cc(C[P+](c2ccccc2)(c2ccccc2)c2ccccc2)cc(OC)c1OC |  | > 100 µM
4 | C=C(C)[C@@H]1CC[C@]2(CN)CC[C@]3(C)[C@H](CC[C@@H]4[C@@]5(C)CCCNC(C)(C)[C@@H]5CC[C@]43C)[C@@H]12 | 1.19 µM | 2.49 µM
5 | CCCN(CCC)c1c([N+](=O)[O-])cc(C(=O)N(CC)CC)cc1[N+](=O)[O-] |  | 90.9 µM
6 | C=C(CN(C)Cc1ccccc1)c1ccc(NC(=O)c2ccc(C(=C)CN(C)Cc3ccccc3)cc2)cc1 | 76.5 µM | > 100 µM
7 | COC(=N)c1csc(C2OC(CO)C(O)C2O)n1 (stereo unspecified) |  | > 100 µM
8 | CN1Nc2ccccc2CC1=O |  | > 100 µM
9 | O=C(CNc1ccc(Cl)cc1Cl)Nn1c(-c2ccccc2)nc2ccccc2c1=O |  | 33.5 µM
10 | CO[C@@H]1CC[C@]2(C)OC[C@H](C)[C@@H]3C[C@@H](C)[C@@H](OC(C)=O)[C@@H]4[C@H]3[C@@H]2O[C@H]4C[C@@]1(C)O | > 100 µM | > 100 µM
11 | CSC[C@H](NC(=O)COc1cccc2cnccc12)C(=O)NC(Cc1ccccc1)C(O)C(=O)N1CSC[C@H]1C(=O)NC(C)(C)C (stereo partly specified) |  | > 100 µM
12 | Cc1nc2c(N)ncnc2o1 |  | > 100 µM
13 | CCN(Cc1c(F)cccc1OC)c1ccc(CO)c(Cl)c1 | 12.8 µM | 41.5 µM
14 | CCOC(=O)c1c(C)c2c(n1Cc1ccccc1)CSCC2=O | 19.7 µM | > 100 µM
15 | C[C@H](CCOc1cccc(CC(=O)O)c1)N(Cc1cccc(C(F)(F)F)c1Cl)CC(c1ccccc1)c1ccccc1 | 3.25 µM | 12.3 µM
16 | O=[N+]([O-])c1cccnc1N=Nc1c(O)[nH]c2ccccc12 |  | 16.5 µM
17 | O=C1C=C(Nc2ccc(Cl)cc2C(=O)c2ccccc2)c2ccccc2C1=O |  | > 100 µM
18 | O=C1C=C(c2c(O)ccc3ccccc23)c2cc(O)ccc2C1=O |  | 33 µM
19 | CCN(CCNS(C)(=O)=O)c1ccc(N)c(C)c1 | 3.48 µM | 17.4 µM
20 | O=C(c1ccc([N+](=O)[O-])cc1[N+](=O)[O-])N(/N=C/C=C/c1ccccc1)c1nnc(-c2ccccc2)c(-c2ccccc2)n1 |  | > 100 µM
21 | COc1ccc(NC(=O)CSc2nnc(-c3ccc(NC(C)=O)cc3)o2)cc1 |  | 30.2 µM
22 | NNc1ncnc2nc[nH]c12 | 4.58 µM | > 100 µM
23 | NCCCn1c2c(c3ccc([N+](=O)[O-])cc3c1=O)C(=O)c1cc(I)ccc1-2 | 0.17 µM | 1.79 µM
24 | CN(Cc1cnc2nc(N)nc(N)c2n1)c1ccc(C(=O)N[C@@H](CCS(=O)(=O)O)C(=O)O)cc1 |  | > 100 µM

These molecules were tested on A498 renal (assay: DTP human tumour cell line panel, 48 h).

Row | SMILES | GI50 | TGI
25 | Nc1c(C(=O)Nc2ccccn2)sc2nc3c(cc12)C(=O)CCC3 | 0.345 µM | > 100 µM
26 | COc1ccc(Cl)cc1NC(=O)c1ccc(NC2=C(Cl)C(=O)N(Cc3ccccc3)C2=O)cc1 | > 100 µM | > 100 µM
27 | Cc1cccc(NC2=C(Cl)C(=O)c3nc(C)ccc3C2=O)c1 | 0.235 µM | 2.43 µM
28 | O=Cc1cc2c(cc1-c1cc3c(cc1C=O)OCO3)OCO2 |  | > 100 µM
29 | C/C(=N\NC(N)=O)c1sc(-c2nc(C)c(/C(C)=N/NC(N)=O)s2)nc1C |  | > 100 µM
30 | COc1cc2c(cc1OCCCN1CCN(CCCOc3cc4c(cc3OC)C(=O)N3CC(F)(F)C[C@H]3C=N4)CC1)N=C[C@@H]1CC(F)(F)CN1C2=O | 2.43 µM | 5.95 µM
31 | C[N+](C)(C)CC(=O)N/N=C(/Cc1cc(=O)oc2cc(O)ccc12)C(=O)Nc1ccc(Cl)cc1 |  | > 100 µM
32 | COc1cccc2c1O/C(=C\c1ccc([N+](=O)[O-])s1)C2=O | > 100 µM | > 100 µM
33 | C=C(C)[C@@H]1CC[C@]2(CN)CC[C@]3(C)[C@H](CC[C@@H]4[C@@]5(C)CCCNC(C)(C)[C@@H]5CC[C@]43C)[C@@H]12 | 1.5 µM | 2.92 µM
34 | C=C(CN(C)Cc1ccccc1)c1ccc(NC(=O)c2ccc(C(=C)CN(C)Cc3ccccc3)cc2)cc1 | 20.8 µM | 48.9 µM
35 | COC(=N)c1csc(C2OC(CO)C(O)C2O)n1 (stereo unspecified) |  | > 100 µM
36 | CN1Nc2ccccc2CC1=O |  | > 100 µM
37 | CO[C@@H]1CC[C@]2(C)OC[C@H](C)[C@@H]3C[C@@H](C)[C@@H](OC(C)=O)[C@@H]4[C@H]3[C@@H]2O[C@H]4C[C@@]1(C)O | > 100 µM | > 100 µM
38 | Oc1oc(C(=C2N=c3ccccc3=N2)c2ccc(Cl)cc2)c(O)c1-c1ccc(Cl)cc1 |  | 9.06 µM
